What is called inhibition is the drop in the measured response relative to a control, in per cent. What is called IC50 is the midpoint of a concentration-inhibition curve.

Data set [1] deals with HRV16. The experiment in a line: Rhinovirus-titre assay. Format: cell-based, human rhinovirus. Particulars: HRV16; for inhibition at 0.04 µg/mL: Human rhinovirus sp., cell not marked b, test compounds 0.04 μg/mL per method (footnote b, 0.2 μg/mL), read-out: HRV titre (inhibitory %): % inhibition observed vs. HRV16 infection control; for NBEC (HRV) HRV titre Relative anti-viral activity: at 0.04 μg/mL vs. pleconaril at 0.1 μg/mL.

Data set [2] concerns the target p38 MAPK γ (MAPK12) (Homo sapiens (Human), UniProt P53778). The experiment in a line: Enzyme inhibition assay (FRET, Z-LYTE), p38 MAPK gamma. Format: biochemical. Particulars: read-out: Enzyme Profile: IC50 Values p38γ. Here is the method: (§1) The enzyme inhibitory activity of test compounds was determined by fluorescence resonance energy transfer (FRET) using synthetic peptides labelled with both donor and acceptor fluorophores (Z-LYTE, Invitrogen). Recombinant, phosphorylated p38 MAPK γ (MAPK12:Millipore) was diluted in HEPES buffer, mixed with compound at the desired final concentrations and incubated for 2 hr at RT. The FRET peptide (2 μM) and ATP (100 μM) were next added to the enzyme/compound mixture and incubated for 1 hr. Development reagent (protease) was added for 1 hr prior to detection in a fluorescence microplate reader. The site-specific protease only cleaves non-phosphorylated peptide and eliminates the FRET signal. Phosphorylation levels of each reaction were calculated using the ratio of coumarin emission (donor) over fluorescein emission (acceptor) with high ratios indicating high phosphorylation levels and low ratios indicating low phosphorylation levels.

The target in data set [3] is cSrc enzyme (Homo sapiens (Human), UniProt P12931). The experiment in a line: c-SRC enzyme inhibition assay (FRET, Z'-LYTE). The class given is biochemical. The note with it: read-out: Enzyme Profile: IC50 Values cSrc.
For data set [4], the system named is TNFα release in d-U937 cells. Nature of the data set: LPS-induced TNFα release in d-U937 cells. The class given is cell-based. The note with it: Homo sapiens, dU937, LPS 0.1 μg/mL, 4 hr, relative to 10 μg/mL BIRB796, read-out: d-U937 (LPS) TNFα REC50. In short, it runs like this:
(§2)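 U937 cells made macrophage-like by 48–72 h with PMA (100 ng/mL), then stimulated with LPS (E. coli O111:B4) for 4 h. Supernatant TNFα and IL-8 measured by sandwich ELISA; inhibition versus vehicle control at each concentration, REC50 from concentration-response curve.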

Data set [5] concerns the target p38 MAPK alpha (MAPK14) (Homo sapiens (Human), UniProt Q16539). Nature of the data set: Enzyme inhibition assay (FRET, Z-LYTE), p38 MAPK alpha via MAPKAP-K2 activation. Format: biochemical. The note with it: read-out: Enzyme Profile: IC50 Values p38α. Here is the method:
as §1
For p38 MAPK alpha (MAPK14: Invitrogen), enzyme activity was evaluated indirectly by determining activation/phosphorylation of the down-stream molecule, MAPKAP-K2. The p38 MAPK a protein was mixed with compound for 2 hr at RT. […] Development reagent was then added and the mixture incubated for 1 hr before detection by fluorescence completed the assay protocol.
The enzyme inhibitory activity of compound was determined by fluorescence resonance energy transfer (FRET) using synthetic peptides labelled with both donor and acceptor fluorophores (Z′-LYTE, Invitrogen).

Data set [6] relates to TNFα release in THP-1 cells. Nature of the data set: LPS-induced TNFα release in THP-1 cells. The class given is cell-based. Particulars: Homo sapiens; THP-1 cells, LPS 3 μg/mL, 4 hr; read-out: THP1 (LPS) TNFα IC50. Here is the method: The inhibition of TNFα production was calculated at each concentration by comparison with vehicle control.
The subject of data set [7] is IL-8 release in d-U937 cells. The experiment in a line: LPS-induced IL-8 release in d-U937 cells. Format: cell-based. The note with it: Homo sapiens, dU937; d-U937 cells, LPS 0.1 μg/mL, 4 hr; read-out: d-U937 (LPS) IL-8 IC50. In short, it runs like this: as §2
Data set [8] concerns Differentiated U937 cells. Nature of the data set: MTT assay: cell viability. Particulars: 1 μg/ml; for d-U937 MTT Assay 4 h: 5% FCS; for d-U937 MTT Assay 24 h: 10% FCS. The class given is cell-based, human. A digest of the protocol: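 Differentiated U937 cells pre-incubated with compound either 4 hr in 5% FCS or 24 h in 10% FCS, then 1 hr MTT. Formazan dissolved in DMSO, absorbance at 550 nm. Percentage viability loss relative to 0.5% DMSO vehicle; apparent increases appear as negative percentages.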
For orientation: Tetrazolium assays rely on reduction of a dye to a coloured formazan, in cell work by metabolically active cells.

For data set [9], the target named is HCK enzyme (Homo sapiens (Human), UniProt P08631). The experiment in a line: HCK enzyme inhibition assay (FRET, Z'-LYTE). Format: biochemical. The note with it: read-out: Enzyme Profile: IC50 Values HCK.
The test system of data set [10] is ICAM-1 expression in BEAS2B cells. The experiment in a line: Poly I:C-induced ICAM-1 induction in BEAS2B cells. The note with it: Homo sapiens, BEAS-2B; BEAS2B cells, poly I:C 1 μg/mL, 18 hr; read-out: BEAS2B (polyIC) ICAM1 IC50. Format: cell-based. A digest of the protocol:
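Human bronchial epithelial BEAS2B cells pre-incubated 2 hr with test compounds at final concentrations, then transfected with poly I:C (1 μg/mL) using Oligofectamine. Cell-surface ICAM-1 quantified by cell-based ELISA with HRP-conjugated anti-rabbit IgG secondary.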

Take `Cc1ccc(-n2nc(C(C)(C)C)cc2NC(=O)Nc2ccc(Oc3ccnc4[nH]c(=O)c(C)nc34)c3ccccc23)cc1` [Example 8, 1-(3-(tert-butyl)-1-(p-tolyl)-1H-pyrazol-5-yl)-3-(4-((2-methyl-3-oxo-3,4-dihydropyrido[2,3-b]pyrazin-8-yl)oxy)naphthalen-1-yl)urea]: the inhibition at 0.04 µg/mL in [1] was 91%. For the same compound, the IC50 amounted to 99 nM in data set [2]; 7 nM in data set [3]; 7 nM in data set [5]; 2.5 nM in data set [6]; 1.7 nM in data set [7]; 5 nM in data set [9]. Moreover, the IC50 in [10] came out at 0.6 nM. Besides, the EC50 in data set [4] was found to be 0.3 nM. For the same compound, in [8], the “d-U937 MTT Assay 4 h” value is “− (− and + indicate the result is below and above the no significant effect threshold, respectively (<30% inhibition at a concentration of 1 μg/ml))”. For the same compound, the “d-U937 MTT Assay 24 h” value in data set [8] is “− (− and + indicate the result is below and above the no significant effect threshold, respectively (<30% inhibition at a concentration of 1 μg/ml))”.
Regarding `COc1ccc(-n2nc(C(C)(C)C)cc2NC(=O)Nc2ccc(Oc3ccnc4[nH]c(=O)[nH]c34)c3ccccc23)cc1` [Example 9], the inhibition at 0.04 µg/mL in data set [1] worked out at 36%. Further, the “NBEC (HRV) HRV titre Relative anti-viral activity” value in [1] worked out at 3.2. For the same compound, the IC50 was 119 nM in data set [2]; 7 nM in data set [3]; 21 nM in data set [5]; 1.6 nM in data set [6]; 27 nM in [7]; < 2 nM in data set [9]. In data set [10], the IC50 turned out to be 24 nM. In addition, the EC50 in data set [4] was found to be 3.1 nM. Also, the “d-U937 MTT Assay 4 h” value in data set [8] was “− (− and + indicate the result is below and above the no significant effect threshold, respectively (<30% inhibition at a concentration of 1 μg/ml))”. The “d-U937 MTT Assay 24 h” value in data set [8] was “− (− and + indicate the result is below and above the no significant effect threshold, respectively (<30% inhibition at a concentration of 1 μg/ml))”.
On to `COc1ccc(-n2nc(C(C)(C)C)cc2NC(=O)Nc2ccc(Oc3ccnc4[nH]c(=O)n(C)c34)c3ccccc23)cc1` [Example 10], for which the inhibition at 0.04 µg/mL in [1] came out at 91%. Further, the IC50 in [2] amounted to 45 nM; in [3], 7 nM; in [5] it was 6 nM; in data set [6], 0.6 nM; in [7], 1 nM; in [9] it was 3 nM. Also, the IC50 in data set [10] is 6 nM. For the same compound, in [4], the EC50 was determined as 1.3 nM. Besides, the “d-U937 MTT Assay 4 h” value in data set [8] was “− (− and + indicate the result is below and above the no significant effect threshold, respectively (<30% inhibition at a concentration of 1 μg/ml))”. Further, the “d-U937 MTT Assay 24 h” value in data set [8] is “− (− and + indicate the result is below and above the no significant effect threshold, respectively (<30% inhibition at a concentration of 1 μg/ml))”.
For the compound `CCn1c(=O)[nH]c2nccc(Oc3ccc(NC(=O)Nc4cc(C(C)(C)C)nn4-c4ccc(OC)cc4)c4ccccc34)c21` [Example 11], the inhibition at 0.04 µg/mL in [1] turned out to be 60%. For the same compound, the IC50 came to 348 nM in data set [2]; 9 nM in data set [3]; 2 nM in data set [5]; 4 nM in [6]; 1.6 nM in data set [7]; 5 nM in data set [9]. In data set [10], the IC50 worked out at 3.6 nM. In addition, the EC50 in [4] was 0.7 nM. Moreover, the “d-U937 MTT Assay 4 h” value in data set [8] is “− (− and + indicate the result is below and above the no significant effect threshold, respectively (<30% inhibition at a concentration of 1 μg/ml))”. Also, the “d-U937 MTT Assay 24 h” value in data set [8] was “− (− and + indicate the result is below and above the no significant effect threshold, respectively (<30% inhibition at a concentration of 1 μg/ml))”.
Turning to `COc1ccc(-n2nc(C(C)(C)C)cc2NC(=O)Nc2ccc(Oc3ccnc4[nH]c(=O)n(C(C)C)c34)c3ccccc23)cc1` [Example 12], in data set [1], the inhibition at 0.04 µg/mL is 94%. In addition, the IC50 was determined as 495 nM in [2]; 12 nM in [3]; 11 nM in [5]; 1.3 nM in data set [6]; 1.1 nM in [7]; 8 nM in data set [9]. Further, the half-maximal inhibitory concentration (IC50) in data set [10] came to 1.9 nM. Besides, the EC50 in data set [4] was found to be 0.5 nM. Further, the “d-U937 MTT Assay 4 h” value in data set [8] was “− (− and + indicate the result is below and above the no significant effect threshold, respectively (<30% inhibition at a concentration of 1 μg/ml))”. Further, in data set [8], the “d-U937 MTT Assay 24 h” value is “− (− and + indicate the result is below and above the no significant effect threshold, respectively (<30% inhibition at a concentration of 1 μg/ml))”.
In the case of `COc1ccc(-n2nc(C(C)(C)C)cc2NC(=O)Nc2ccc(Oc3ccnc4[nH]c(=O)[nH]c34)c3ncccc23)cc1` [Example 14, 1-(3-(tert-Butyl)-1-(4-methoxyphenyl)-1H-pyrazol-5-yl)-3-(8-((2-oxo-2,3-dihydro-1H-imidazo[4,5-b]pyridin-7-yl)oxy)quinolin-5-yl)urea], the inhibition at 0.04 µg/mL in data set [1] came out at 8%. The “NBEC (HRV) HRV titre Relative anti-viral activity” value in [1] is listed as 1.5. Further, the IC50 in [2] was 180 nM; in data set [3] it was 0.8 nM; in data set [5], 5 nM; in data set [6], 163 nM; in data set [7] it was 726 nM; in data set [9], < 2 nM. Also, the IC50 in [10] is 675 nM. Besides, the EC50 in data set [4] came out at 166 nM. Besides, in data set [8], the “d-U937 MTT Assay 4 h” value was “− (− and + indicate the result is below and above the no significant effect threshold, respectively (<30% inhibition at a concentration of 1 μg/ml))”. Also, the “d-U937 MTT Assay 24 h” value in data set [8] is “− (− and + indicate the result is below and above the no significant effect threshold, respectively (<30% inhibition at a concentration of 1 μg/ml))”.
`Cc1ccc(-n2nc(C(C)(C)C)cc2NC(=O)Nc2ccc(Oc3ncnc4[nH]c(=O)[nH]c34)c3ccccc23)cc1` [Example 15, 1-(3-(tert-Butyl)-1-(p-tolyl)-1H-pyrazol-5-yl)-3-(4-((8-oxo-8,9-dihydro-7H-purin-6-yl)oxy)naphthalen-1-yl)urea]: in data set [1], the inhibition at 0.04 µg/mL was found to be 8%. Further, the IC50 in data set [2] turned out to be 539 nM; in [3], 35 nM; in data set [5] it was 30 nM; in [6], 126 nM; in [7], 164 nM; in data set [9], 36 nM. The IC50 in data set [10] was > 182 nM. The EC50 in [4] was found to be 33 nM. In data set [8], the “d-U937 MTT Assay 4 h” value is “− (− and + indicate the result is below and above the no significant effect threshold, respectively (<30% inhibition at a concentration of 1 μg/ml))”. For the same compound, in data set [8], the “d-U937 MTT Assay 24 h” value was “− (− and + indicate the result is below and above the no significant effect threshold, respectively (<30% inhibition at a concentration of 1 μg/ml))”.

The record behind these values is US8933228B2, “Respiratory formulations and compounds for use therein” (Respivert, Ltd., priority 2010, dated 2015).
